Data set [1] concerns the target T1, human full length Hsp90 (Homo sapiens, UniProt P07900).
T1 construct: amino acid residues 1 to 732 of human Hsp90 (GenBank: BC121062.2); made in house; host or cells: E. coli BL21DE3 (pET15b)
The data set is described as follows: Determination of the Kd value of FITC-labeled geldanamycin for Hsp90 (fluorescence polarization). Conditions: with or without 50 nM Hsp90. Type of data set: binding. Here is the method:
Eighty five micro liters (μl) of a binding assay buffer (20 mM HEPES, pH 7.5, 50 mM KCl, 5 mM MgCl2, 20 mM sodium molybdate, 0.01% NP-40, 2 mM DTT, and 0.1 mg/mL BSA) were added to a 96 well black plate placed on ice. DMSO (3 μl) was added to the wells, followed by the addition of either 10 μl human full length HSP90 (50 nM final concentration) diluted in the binding assay buffer or 10 μl of the buffer alone. The plates were incubated at 4° C. on a plate shaker for 24 hours. Two μl of 50× GA-FITC titrate within a final range of 160 nM to 0.3125 nM in DMSO were added to all wells, followed by incubation at ambient temperature for 1 h with agitation. Fluorescence polarization readings were taken at excitation and emission wavelengths of 480 and 500 nm respectively. Measurements were performed in duplicate. Specific binding was calculated by subtracting polarization values in the presence of
Hsp90 from those in the absence of Hsp90. GA-FITC Kd values were calculated using Prism software (GraphPad Software, Inc., San Diego, Calif.).
A 10 point concentration response curve for binding of GM-FITC to Hsp90 was obtained. The concentration of GM-FITC used ranged from 160 nM to 0.3125 nM, which produced a saturable concentration response curve. […] The value of binding maximum (Bmax) was determined to be 188 nM.
In general terms: Fluorescence polarisation rises when a labelled molecule tumbles more slowly, as on binding a larger partner.

Data set [2] deals with T1, human full length Hsp90. As to the kind of experiment: Fluorescence polarization Hsp90 competitive binding assay (GM-FITC displacement). As for the experimental part: Hsp90 binding assays was performed generally according to the procedure described in J. Biomol. […] Hsp90 inhibitors were solubilized in DMSO at a stock concentration of 50 mM. […] Eighty five μl of binding assay buffer (20 mM HEPES, pH-7.5, 50 mM KCl, 5 mM MgCl2, 20 mM sodium molybdate, 0.01% NP-40, 2 mM DTT, and 0.1 mg/ml BSA) was added to the wells of a 96 well black plate placed on ice. […] Next, 10 μl either binding assay buffer alone (control) or human full length Hsp90 protein diluted in the binding assay buffer was added to achieve a final concentration of 50 nM. The plates were incubated at 4° C. on a plate shaker for 24 h. Two μl of 50× GM-FITC (9 nM final) in DMSO was added to all wells and the plate was incubated at ambient temperature for 1 h with shaking. Fluorescence polarization readings were taken in duplicate at excitation and emission wavelengths of 480 nm and 500 nm respectively. Specific binding was calculated by subtracting polarization values in the presence of Hsp90 from those in the absence of Hsp90. To calculate percent inhibition the specific binding values obtained for GA-FITC in the presence of compound were compared to values for GA-FITC in the absence of compound (DMSO only).

Data set [3] can be described thus: Rat CNS exposure (plasma and CNS tissue concentration, LC-MS/MS). The class given is in vivo. To be noted: 10 mg/kg. Here is the method: Test subjects (Sprague-Dawley rats) were housed in sterile vivarium with controlled temperature, humidity and 12-hour light-dark cycle (7:00 lights-on and 19:00 lights-off). Following procurement, rats were acclimated to the vivarium facility for 7 days prior to study day-1 with ad libitum access to both diet and water. Bedding was changed twice weekly. […] On study day-1 rats were administered vehicle or Hsp90 inhibitor formulation. Following administrations of test article formulation, blood and CNS tissue was collected at 6.5 h post-dosed by a necropsy procedure. In detail, CNS tissue was isolated from the Vehicle and dose groups, divided into 2 mid-sagittal sections, placed in tarred 1 mL micro-centrifuge tubes, weighed and immediately frozen on dry ice. Blood was isolated by a cardiac puncture procedure from the Vehicle and Hsp90 inhibitor dose groups. From these samples, plasma was isolated in plasma separator tubes containing ethylenediaminetetraacetic acid as the anticoagulant. HSP90 inhibitor concentrations in plasma and CNS tissue were determined using LC-MS/MS based methods following a 60% acetonitrile extraction.

Setting [4] is: Table 1, 50 nM Hsp90, 9 nM GM-FITC, read-out: Biochemical Potency IC50.
Setting [5] is: Table II, binding affinities ranked by potency.
Where [6] appears, read: Table II, binding affinities ranked by potency, read-out: IC50.

Here are results for 16 molecules from patent publication US20160311795A1, “PYRIMIDINE DIAMINE DERIVATIVES AS INHIBITORS OF CYTOSOLIC HSP90” (CALASIA PHARMACEUTICALS, INC., priority 2012, published 2016).

Like-named read-outs stand apart in the source and are kept apart here.

As to `CO[C@H]1/C=C\C=C(/C)C(=O)NC2=CC(=O)C(NCCCCCCNC(=S)Nc3ccc(-c4c5ccc(=O)cc-5oc5cc(O)ccc45)c(C(=O)O)c3)=C(C[C@@H](C)C[C@H](OC)[C@H](O)[C@@H](C)/C=C(\C)[C@@H]1OC(N)=O)C2=O` [GA-FITC], the “binding maximum (Bmax)” value in data set [1] came out at 188 nM. In addition, the affinity in data set [1] (160 nM to 0.3125 nM probe), expressed as Kd, was 0.0031 µM.

As to `Cc1cnc(CN(C)c2cc(Cl)nc(N)n2)c(C)c1Cl` [SBI-0639899, 6-Chloro-N4-((4-chloro-3,5-dimethylpyridin-2-yl)methyl)-N4-methylpyrimidine-2,4-diamine], the IC50 in data set [2] (setting [4]) and in data set [2] (setting [6]) was 2.15 µM in each case. Further, the inhibition constant (Ki) in data set [2] (setting [5]) worked out at 0.538 µM.

Regarding `Cc1cnc(CN(C)c2cc(Cl)nc(N)n2)c(C)c1Br` [SBI-0639900, N4-((4-Bromo-3,5-dimethylpyridin-2-yl)methyl)-6-chloro-N4-methylpyrimidine-2,4-diamine], the half-inhibitory concentration (IC50) is at least 32 µM in data set [2] (setting [4]) and over 32 µM in data set [2] (setting [6]). Besides, the Ki in data set [2] (setting [5]) is over 8 µM.

In the case of `COc1c(C)cnc(CN(C(=O)CC(C)(C)C)c2cc(Cl)nc(N)n2)c1C` [SBI-0639901, N-(2-amino-6-chloropyrimidin-4-yl)-N-((4-methoxy-3,5-dimethylpyridin-2-yl)methyl)-3,3-dimethylbutanamide], the half-maximal inhibitory concentration (IC50) in data set [2] (setting [4]) and in data set [2] (setting [6]) was 30 µM in each case. The same molecule gave a Ki in data set [2] (setting [5]) of 7.5 µM.

As to `COc1c(C)cnc(CN(C(=O)CCCCl)c2cc(Cl)nc(N)n2)c1C` [SBI-0639902, N-(2-Amino-6-chloropyrimidin-4-yl)-4-chloro-N-((4-methoxy-3,5-dimethylpyridin-2-yl)methyl)butanamide], the IC50 in data set [2] (setting [4]) was at least 32 µM; in data set [2] (setting [6]), over 32 µM. In data set [2] (setting [5]), this molecule gave an inhibitory constant (Ki) of over 8 µM.

As to `COc1c(C)cnc(CN(C(C)=O)c2cc(Cl)nc(N)n2)c1C` [SBI-0640492], the concentration for half-maximal inhibition (IC50) in data set [2] (setting [4]) is at least 32 µM; in data set [2] (setting [6]) it was over 32 µM. Besides, in data set [2] (setting [5]), the inhibition constant (Ki) was over 8 µM.

For the molecule `COc1c(C)cnc(CN(CCc2ccc3c(c2)OCO3)c2cc(Cl)nc(N)n2)c1C` [SBI-0640607, N4-(2-(Benzo[d][1,3]dioxol-5-yl)ethyl)-6-chloro-N4-((4-methoxy-3,5-dimethylpyridin-2-yl)methyl)pyrimidine-2,4-diamine], the IC50 in data set [2] (setting [4]) and in data set [2] (setting [6]) was 0.368 µM throughout. This molecule showed a Ki in data set [2] (setting [5]) of 0.092 µM.

Take `COc1c(C)cnc(CN(CCc2ccc(Cl)cc2)c2cc(Cl)nc(N)n2)c1C` [SBI-0640608, 6-Chloro-N4-(4-chlorophenethyl)-N4-((4-methoxy-3,5-dimethylpyridin-2-yl)methyl)pyrimidine-2,4-diamine]: the half-inhibitory concentration (IC50) in data set [2] (setting [4]) and in data set [2] (setting [6]) was 0.311 µM throughout. The Ki in data set [2] (setting [5]) came to 0.078 µM.

Regarding `CCCCCCN(Cc1ncc(C)c(OC)c1C)c1cc(Cl)nc(N)n1` [SBI-0640609, 6-Chloro-N4-hexyl-N4-((4-methoxy-3,5-dimethylpyridin-2-yl)methyl)pyrimidine-2,4-diamine], the IC50 in data set [2] (setting [4]) and in data set [2] (setting [6]) was 0.391 µM each time. In data set [2] (setting [5]), this molecule came in with an inhibitory constant (Ki) of 0.098 µM.

For the molecule `Cc1cnc(CN(CCc2ccc(Cl)cc2)c2cc(Cl)nc(N)n2)c(C)c1Cl` [SBI-0640610, 6-Chloro-N4-((4-chloro-3,5-dimethylpyridin-2-yl)methyl)-N4-(4-chlorophenethyl)pyrimidine-2,4-diamine], the half-inhibitory concentration (IC50) in data set [2] (setting [4]) and in data set [2] (setting [6]) was 0.194 µM throughout. The affinity in data set [2] (setting [5]), expressed as Ki, was 0.049 µM.

As to `COc1c(C)cnc(CN(CCN2CCOCC2)c2cc(Cl)nc(N)n2)c1C` [SBI-0640611, 6-Chloro-N4-((4-methoxy-3,5-dimethylpyridin-2-yl)methyl)-N4-(2-morpholinoethyl)pyrimidine-2,4-diamine], the IC50 in data set [2] (setting [4]) and in data set [2] (setting [6]) was 1.69 µM in each case. In data set [2] (setting [5]), this molecule returned a Ki of 0.423 µM.

`CCN(Cc1ncc(C)c(OC)c1C)c1cc(Cl)nc(N)n1` [SBI-0640612, 6-Chloro-N4-ethyl-N4-((4-methoxy-3,5-dimethylpyridin-2-yl)methyl)pyrimidine-2,4-diamine]: the IC50 in data set [2] (setting [4]) and in data set [2] (setting [6]) was 1.14 µM throughout. The same molecule showed a Ki in data set [2] (setting [5]) of 0.285 µM.

As to `COc1c(C)cnc(CN(CCc2cccc(Br)c2)c2cc(Cl)nc(N)n2)c1C` [SBI-0640613, N4-(3-Bromophenethyl)-6-chloro-N4-((4-methoxy-3,5-dimethylpyridin-2-yl)methyl)pyrimidine-2,4-diamine], the half-inhibitory concentration (IC50) in data set [2] (setting [4]) and in data set [2] (setting [6]) was 0.097 µM in each case. Further, the affinity in data set [2] (setting [5]) corresponds to a Ki of 0.024 µM.

In the case of `COc1c(C)cnc(CN(C(=O)C(C)C)c2cc(Cl)nc(N)n2)c1C` [SBI-0640644], the IC50 in data set [2] (setting [4]) and in data set [2] (setting [6]) was 13.9 µM each time. Moreover, in data set [2] (setting [5]), the Ki came to 3.48 µM.

For the molecule `CCCC(=O)N(Cc1ncc(C)c(OC)c1C)c1cc(Cl)nc(N)n1` [SBI-0640645], the IC50 in data set [2] (setting [4]) and in data set [2] (setting [6]) was 30 µM in each case. In data set [2] (setting [5]), this molecule registered a Ki of 7.5 µM.

As to `Cc1cn(-c2cc(F)c(C(N)=O)c(N[C@H]3CCOC3)c2)c2c1C(=O)CC(C)(C)C2` [SNX-0723, reference compound], the “partitioning CNS versus plasma” value in data set [3] is reported as “selectively partitions into the CNS compartment compared to plasma”.

In general, Kd refers to the equilibrium constant for the complex coming apart. As usually defined, the IC50 is the midpoint of a concentration-inhibition curve. As usually defined, the Ki is a dissociation constant, usually derived from enzyme kinetics or from competition with a known ligand.
